Results on 16 compounds are retold here after ChEMBL document CHEMBL3817739, “Synthesis and cytotoxic evaluation of several oleanolic aciduracil/thymine conjugates” (Medchemcomm, 2016).

Molecules are shown by their SMILES. pIC50: −log10 of the molar value.

Assay [1] deals with A549. The assay can be described thus: Cytotoxicity against human A549 cells assessed as inhibition of cell proliferation after 72 hrs by MTT assay. The conditions noted are these: A549, 72 h. The assay is classed as functional, cell-based. In general terms: Formazan colour is commonly taken as a measure of viable cells.
A short description of assay [2]: Cytotoxicity against human PC3 cells assessed as inhibition of cell proliferation after 72 hrs by MTT assay. The conditions noted are these: for pIC50: Homo sapiens, PC-3, 72 h, read-out: IC50. It is filed as functional, cell-based, PC-3.
Assay [3] deals with HepG2. The assay can be described thus: Cytotoxicity against human HepG2 cells assessed as inhibition of cell proliferation after 72 hrs by MTT assay. The assay is classed as functional, cell-based. The conditions noted are these: HepG2, 72 h.
Assay [4] is described as follows: Cytotoxicity against human BGC823 cells assessed as inhibition of cell proliferation after 72 hrs by MTT assay. The conditions noted are these: BGC-823, 72 h. It is filed as functional, cell-based.
Assay [5] deals with MCF7. The assay can be described thus: Cytotoxicity against human MCF7 cells assessed as inhibition of cell proliferation after 72 hrs by MTT assay. It is filed as functional, cell-based. The conditions noted are these: MCF7, 72 h.

As for `CC1(C)CC[C@]2(C(=O)OCCn3ccc(=O)[nH]c3=O)CC[C@]3(C)C(=CC[C@@H]4[C@@]5(C)CC[C@H](O)C(C)(C)[C@@H]5CC[C@]43C)[C@@H]2C1`, the pIC50 (as a rule, −log10 of the IC50, conventionally taken in molar units) was 6.44 in assay [1]; 5.02 in assay [2]; 4.82 in assay [3]; 6.43 in assay [4]; 4.34 in assay [5].
In the case of `CC1(C)CC[C@]2(C(=O)OCCn3ccc(=O)n(CCOC(=O)[C@]45CCC(C)(C)C[C@H]4C4=CC[C@@H]6[C@@]7(C)CC[C@H](O)C(C)(C)[C@@H]7CC[C@@]6(C)[C@]4(C)CC5)c3=O)CC[C@]3(C)C(=CC[C@@H]4[C@@]5(C)CC[C@H](O)C(C)(C)[C@@H]5CC[C@]43C)[C@@H]2C1`, the pIC50 in assay [1] was 5.04; in assay [3], 3.96; in assay [4], 6.07; in assay [5] it was 4.53. Besides, in assay [2] (pc-3), the IC50 result is on record as “Not Active”.
On to `Cc1cn(CCCCCCCCOC(=O)[C@]23CCC(C)(C)C[C@H]2C2=CC[C@@H]4[C@@]5(C)CC[C@H](O)C(C)(C)[C@@H]5CC[C@@]4(C)[C@]2(C)CC3)c(=O)[nH]c1=O`, for which the negative logarithm of the IC50 (pIC50) in assay [1] was 5.95; in assay [2], 6.64; in assay [3], 5.06; in assay [4], 6.54; in assay [5], 4.79.
The like results for `Cc1cn(CCOC(=O)[C@]23CCC(C)(C)C[C@H]2C2=CC[C@@H]4[C@@]5(C)CC[C@H](O)C(C)(C)[C@@H]5CC[C@@]4(C)[C@]2(C)CC3)c(=O)n(CCOC(=O)[C@]23CCC(C)(C)C[C@H]2C2=CC[C@@H]4[C@@]5(C)CC[C@H](O)C(C)(C)[C@@H]5CC[C@@]4(C)[C@]2(C)CC3)c1=O` were, in that order, 6.10, 5.94, 5.28, 5.72 and 5.52.
On to `CC1(C)CC[C@]2(C(=O)OCCCCCCCCn3ccc(=O)[nH]c3=O)CC[C@]3(C)C(=CC[C@@H]4[C@@]5(C)CC[C@H](O)C(C)(C)[C@@H]5CC[C@]43C)[C@@H]2C1`, for which the pIC50 was 5.07 in assay [1]; 4.68 in assay [2]; 5.98 in assay [3]; 4.83 in assay [4]; more than 7.00 in assay [5].
On to `O=c1[nH]cc(F)c(=O)[nH]1` [FLUOROURACIL], for which the negative logarithm of the IC50 (pIC50) in assay [1] was 4.65; in assay [2] it was 4.91; in assay [3] it was 4.25; in assay [4] it was 5.05; in assay [5], 4.67.
For `Cc1cn(CCOC(=O)[C@]23CCC(C)(C)C[C@H]2C2=CC[C@@H]4[C@@]5(C)CC[C@H](O)C(C)(C)[C@@H]5CC[C@@]4(C)[C@]2(C)CC3)c(=O)[nH]c1=O`, the negative-log IC50 (pIC50) in assay [1] is 4.46; in assay [2], 5.71; in assay [3], 5.27; in assay [4] it was 6.80; in assay [5], 4.99.
Turning to `Cc1cn(CCCCCCCCOC(=O)[C@@]23CCC(C)(C)C[C@@H]2C2=CC[C@H]4[C@]5(C)CC[C@@H](O)C(C)(C)[C@H]5CC[C@]4(C)[C@@]2(C)CC3)c(=O)n(CCCCCCCCOC(=O)[C@@]23CCC(C)(C)C[C@@H]2C2=CC[C@H]4[C@]5(C)CC[C@@H](O)C(C)(C)[C@H]5CC[C@]4(C)[C@@]2(C)CC3)c1=O`, the pIC50 in assay [1] is more than 7.00; in assay [2], 4.70; in assay [3], 5.32; in assay [4] it was 5.51; in assay [5] it was 5.35.
`CC1(C)CC[C@]2(C(=O)O)CC[C@]3(C)C(=CC[C@@H]4[C@@]5(C)CC[C@H](O)C(C)(C)[C@@H]5CC[C@]43C)[C@@H]2C1` [OLEANOLIC_ACID]: the pIC50 in assay [1] is 4.79; in assay [2], 4.14; in assay [3], 4.80; in assay [4], 4.62; in assay [5], 4.90.
As to `CC1(C)CC[C@]2(C(=O)OCCCCCCCCn3ccc(=O)n(CCCCCCCCOC(=O)[C@]45CCC(C)(C)C[C@H]4C4=CC[C@@H]6[C@@]7(C)CC[C@H](O)C(C)(C)[C@@H]7CC[C@@]6(C)[C@]4(C)CC5)c3=O)CC[C@]3(C)C(=CC[C@@H]4[C@@]5(C)CC[C@H](O)C(C)(C)[C@@H]5CC[C@]43C)[C@@H]2C1`, the pIC50 in assay [1] was 4.43; in assay [2] it was 4.65; in assay [3] it was 4.99; in assay [4], 6.57; in assay [5], 5.42.
In the case of `Cc1cn(CCCCCCOC(=O)[C@]23CCC(C)(C)C[C@H]2C2=CC[C@@H]4[C@@]5(C)CC[C@H](O)C(C)(C)[C@@H]5CC[C@@]4(C)[C@]2(C)CC3)c(=O)[nH]c1=O`, the pIC50 is more than 7.00 in assay [1]; 5.08 in assay [2]; 5.29 in assay [3]; 6.43 in assay [4]; 5.40 in assay [5].
Take `Cc1cn(CCCCOC(=O)[C@]23CCC(C)(C)C[C@H]2C2=CC[C@@H]4[C@@]5(C)CC[C@H](O)C(C)(C)[C@@H]5CC[C@@]4(C)[C@]2(C)CC3)c(=O)[nH]c1=O`: the pIC50 in assay [1] is 5.33; in assay [2], 6.37; in assay [3], 5.62; in assay [4] it was 5.95; in assay [5], 5.99.
As to `CC1(C)CC[C@]2(C(=O)OCCCCn3ccc(=O)[nH]c3=O)CC[C@]3(C)C(=CC[C@@H]4[C@@]5(C)CC[C@H](O)C(C)(C)[C@@H]5CC[C@]43C)[C@@H]2C1`, the pIC50 in assay [1] was 6.96; in assay [2] it was 5.84; in assay [3], 5.38; in assay [4], 6.03; in assay [5], 4.15.
Take `Cc1cn(CCCCCCOC(=O)[C@]23CCC(C)(C)C[C@H]2C2=CC[C@@H]4[C@@]5(C)CC[C@H](O)C(C)(C)[C@@H]5CC[C@@]4(C)[C@]2(C)CC3)c(=O)n(CCCCCCOC(=O)[C@]23CCC(C)(C)C[C@H]2C2=CC[C@@H]4[C@@]5(C)CC[C@H](O)C(C)(C)[C@@H]5CC[C@@]4(C)[C@]2(C)CC3)c1=O`: the pIC50 was more than 7.00 in assay [1]; 6.06 in assay [2]; 5.32 in assay [3]; 6.21 in assay [4]; 4.47 in assay [5].
`CC1(C)CC[C@]2(C(=O)OCCCCn3ccc(=O)n(CCCCOC(=O)[C@]45CCC(C)(C)C[C@H]4C4=CC[C@@H]6[C@@]7(C)CC[C@H](O)C(C)(C)[C@@H]7CC[C@@]6(C)[C@]4(C)CC5)c3=O)CC[C@]3(C)C(=CC[C@@H]4[C@@]5(C)CC[C@H](O)C(C)(C)[C@@H]5CC[C@]43C)[C@@H]2C1`: the pIC50 in assay [1] was 5.39; in assay [2], 5.32; in assay [3], 5.40; in assay [4], 6.82; in assay [5], 3.89.
As for `CC1(C)CC[C@]2(C(=O)OCCCCCCn3ccc(=O)n(CCCCCCOC(=O)[C@]45CCC(C)(C)C[C@H]4C4=CC[C@@H]6[C@@]7(C)CC[C@H](O)C(C)(C)[C@@H]7CC[C@@]6(C)[C@]4(C)CC5)c3=O)CC[C@]3(C)C(=CC[C@@H]4[C@@]5(C)CC[C@H](O)C(C)(C)[C@@H]5CC[C@]43C)[C@@H]2C1`, the pIC50 in assay [1] is 5.16; in assay [2] it was 4.81; in assay [3] it was 6.00; in assay [4], 6.17; in assay [5], more than 7.00.
